Data published in the supplement of paper PMC11208160.

Assay: recombinant UMI read abundance after kanamycin selection (control-corrected) (log10(CPM+1)); higher = more efficient recombination; extreme values may be limits of the assay; sequences stand for … in AGTGCAGAGAAAATCGGCCAGTTTTCTCTGCCTGCAGTCCGCATGCCGTGGGACCCCTTGGGTTCTAACCTGTTGCCTAGATTTATGCAGCGGACTGCCTTTCTCCCAAAGTGATAAACCGG…AGGTTGGTTTCACT; site = the 11-nt donor
How it was run: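 After plating on IPTG (0.07 mM) plus kanamycin, or unselected, in two replicates, recombinant UMIs were PCR-amplified across the donor–target junction and sequenced. The cells were Escherichia coli co-electroporated with a UMI-tagged donor and donor-binding-loop pair library and a target plasmid with a fixed target and T7-inducible IS621 bridge recombinase. Values are log10(CPM+1), with CPM averaged over replicates and scaled by control-derived factors.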
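Also: IS621 bridge recombinase in Escherichia coli cells against a fixed T5 target plasmid.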

Sequence	recombinant UMI read abundance (log10)
GTTCGTACATGGACCGGTTTTCCCGGTAATCCGTATTTGAC (site GTTCGTACTGT)	1.54
GTTCGTACATGGACCGGTTTTCCCGGTAATCCGTATTTGGG (site GTTCGTACTCC)	0.0129
GTTCTATCATGGACCGGTTTTCCCGGTAATCCGTATTTGGT (site GTTCTATCTAC)	0
GTTCTTCCATGGACCGGTTTTCCCGGTAATCCGTATTTGGT (site GTTATTCCTAC)	0.00339
GTTCTTCCATGGACCGGTTTTCCCGGTAATCCGTATTTGGT (site GTTCTTCCTAC)	0.00538
GTTCTTCCATGGACCGGTTTTCCCGGTAATCCGTATTTGGT (site GTTGTTCCTAC)	0.0119
GTTCTTCCATGGACCGGTTTTCCCGGTAATCCGTATTTGGT (site GTTTTTCCTAC)	0
GTTGAGACATGGACCGGTTTTCCCGGTAATCCGTATTTGGT (site ATTGAGACTAC)	0.953
GTTGAGACATGGACCGGTTTTCCCGGTAATCCGTATTTGGT (site CTTGAGACTAC)	0.883
GTTGAGACATGGACCGGTTTTCCCGGTAATCCGTATTTGGT (site GTTGAGACTAC)	0.775
GTTGAGACATGGACCGGTTTTCCCGGTAATCCGTATTTGGT (site TTTGAGACTAC)	0.683
GTTGATGCATGGACCGGTTTTCCCGGTAATCCGTATTTGAC (site GTTGATGCTGT)	2.12
GTTGCGTCATGGACCGGTTTTCCCGGTAATCCGTATTTGGC (site GTTGCGTCTGC)	2.41
GTTGCGTCATGGACCGGTTTTCCCGGTAATCCGTATTTGGT (site GTTGCGTCTAC)	0.923
GTTGTATCATGGACCGGTTTTCCCGGTAATCCGTATTTGAC (site CTAGTATCTGT)	1.45
GTTGTATCATGGACCGGTTTTCCCGGTAATCCGTATTTGAC (site GTTGTATCTGT)	2.18
GTTGTCCCATGGACCGGTTTTCCCGGTAATCCGTATTTGGT (site GTTGTACCTAC)	0.00965
GTTGTCCCATGGACCGGTTTTCCCGGTAATCCGTATTTGGT (site GTTGTCCCTAC)	0.0143
GTTGTCCCATGGACCGGTTTTCCCGGTAATCCGTATTTGGT (site GTTGTGCCTAC)	0.0145
GTTGTCCCATGGACCGGTTTTCCCGGTAATCCGTATTTGGT (site GTTGTTCCTAC)	0
GTTGTCGCATGGACCGGTTTTCCCGGTAATCCGTATTTGCG (site GTAGTCGCTCG)	0.0153
GTTGTCGCATGGACCGGTTTTCCCGGTAATCCGTATTTGCG (site GTCGTCGCTCG)	0.00886
GTTGTCGCATGGACCGGTTTTCCCGGTAATCCGTATTTGCG (site GTGGTCGCTCG)	0.009

Sequence	recombinant UMI read abundance (log10)
GTTGTCGCATGGACCGGTTTTCCCGGTAATCCGTATTTGCG (site GTTGTCGCTCG)	0.974
GTTGTTACATGGACCGGTTTTCCCGGTAATCCGTATTTGGT (site GTTGTTACTAC)	1.07
GTTGTTACATGGACCGGTTTTCCCGGTAATCCGTATTTGGT (site GTTGTTCCTAC)	0
GTTGTTACATGGACCGGTTTTCCCGGTAATCCGTATTTGGT (site GTTGTTGCTAC)	0.0188
GTTGTTACATGGACCGGTTTTCCCGGTAATCCGTATTTGGT (site GTTGTTTCTAC)	0
GTTGTTCCATGGACCGGTTTTCCCGGTAATCCGTATTTGAT (site GTTGTTCCTAA)	0.0147
GTTGTTCCATGGACCGGTTTTCCCGGTAATCCGTATTTGAT (site GTTGTTCCTAC)	0.00806
GTTGTTCCATGGACCGGTTTTCCCGGTAATCCGTATTTGAT (site GTTGTTCCTAG)	0
GTTGTTCCATGGACCGGTTTTCCCGGTAATCCGTATTTGAT (site GTTGTTCCTAT)	0.00518
GTTGTTCCATGGACCGGTTTTCCCGGTAATCCGTATTTGCT (site GTTGTTCCTAA)	0.0109
GTTGTTCCATGGACCGGTTTTCCCGGTAATCCGTATTTGCT (site GTTGTTCCTAC)	0.0126
GTTGTTCCATGGACCGGTTTTCCCGGTAATCCGTATTTGCT (site GTTGTTCCTAG)	0
GTTGTTCCATGGACCGGTTTTCCCGGTAATCCGTATTTGCT (site GTTGTTCCTAT)	0.00476
GTTGTTCCATGGACCGGTTTTCCCGGTAATCCGTATTTGGC (site GTTGTTCCTAC)	0.00298
GTTGTTCCATGGACCGGTTTTCCCGGTAATCCGTATTTGGC (site GTTGTTCCTCC)	0.0108
GTTGTTCCATGGACCGGTTTTCCCGGTAATCCGTATTTGGC (site GTTGTTCCTGC)	0
GTTGTTCCATGGACCGGTTTTCCCGGTAATCCGTATTTGGC (site GTTGTTCCTTC)	0.0051
GTTGTTCCATGGACCGGTTTTCCCGGTAATCCGTATTTGGG (site GTTGTTCCTAC)	0.0139
GTTGTTCCATGGACCGGTTTTCCCGGTAATCCGTATTTGGG (site GTTGTTCCTCC)	0.0029
GTTGTTCCATGGACCGGTTTTCCCGGTAATCCGTATTTGGG (site GTTGTTCCTGC)	0
GTTGTTCCATGGACCGGTTTTCCCGGTAATCCGTATTTGGG (site GTTGTTCCTTC)	0.00718
GTTTAACCATGGACCGGTTTTCCCGGTAATCCGTATTTGGT (site GTTTAACCTAC)	0.00474
GTTTACCCATGGACCGGTTTTCCCGGTAATCCGTATTTGGG (site GTTTACCCTCC)	0.00501

Sequence	recombinant UMI read abundance (log10)
GTTTATTCATGGACCGGTTTTCCCGGTAATCCGTATTTGCT (site GTTTATTCTAG)	1.99
GTTTATTCATGGACCGGTTTTCCCGGTAATCCGTATTTGGT (site GTTTATTCTAC)	1.61
GTTTCGGCATGGACCGGTTTTCCCGGTAATCCGTATTTGGT (site GTTTCGGCTAC)	0.282
GTTTGCCCATGGACCGGTTTTCCCGGTAATCCGTATTTGAT (site GATTGCCCTAT)	0.00963
GTTTGCCCATGGACCGGTTTTCCCGGTAATCCGTATTTGAT (site GCTTGCCCTAT)	0.0198
GTTTGCCCATGGACCGGTTTTCCCGGTAATCCGTATTTGAT (site GGTTGCCCTAT)	0.018
GTTTGCCCATGGACCGGTTTTCCCGGTAATCCGTATTTGAT (site GTTTGCCCTAT)	0.0181
GTTTGCGCATGGACCGGTTTTCCCGGTAATCCGTATTTGTC (site GTTTGCGCTGA)	1.54
TAAACAACATGGACCGGTTTTCCCGGTAATCCGTATTTGTA (site TAAACAACTTA)	0.815
TAAACCACATGGACCGGTTTTCCCGGTAATCCGTATTTGAT (site TAAACCACTAT)	1.3
TAAAGTCCATGGACCGGTTTTCCCGGTAATCCGTATTTGCA (site TAAAGTCCTTA)	0.00275
TAAAGTCCATGGACCGGTTTTCCCGGTAATCCGTATTTGCA (site TAAAGTCCTTC)	0.00901
TAAAGTCCATGGACCGGTTTTCCCGGTAATCCGTATTTGCA (site TAAAGTCCTTG)	1.07
TAAAGTCCATGGACCGGTTTTCCCGGTAATCCGTATTTGCA (site TAAAGTCCTTT)	0
TAAAGTCCATGGACCGGTTTTCCCGGTAATCCGTATTTGTG (site TAAAGTCCTAA)	0.00597
TAAAGTCCATGGACCGGTTTTCCCGGTAATCCGTATTTGTG (site TAAAGTCCTCA)	0.64
TAAAGTCCATGGACCGGTTTTCCCGGTAATCCGTATTTGTG (site TAAAGTCCTGA)	0
TAAAGTCCATGGACCGGTTTTCCCGGTAATCCGTATTTGTG (site TAAAGTCCTTA)	0.19
TAAATTTCATGGACCGGTTTTCCCGGTAATCCGTATTTGCC (site TAAATTTCTGG)	0
TAACAATCATGGACCGGTTTTCCCGGTAATCCGTATTTGTC (site TAACAATCTGA)	2.03
TAACCTCCATGGACCGGTTTTCCCGGTAATCCGTATTTGAT (site TAACCTCCTAT)	0
TAACGCACATGGACCGGTTTTCCCGGTAATCCGTATTTGTA (site TAACGCACTTA)	1.61
